Source: US7396529B2, “Compositions and methods for regulating receptor clustering” (Mount Sinai Hospital, priority 2001, dated 2008)
Entries after “also recorded” stand apart in the source; their conditions may differ.

Columns and labels:
[1] = tested on: protein tyrosine phosphorylation in T cells; experiment: TCR signaling: phosphotyrosine Western blot after anti-CD3ε bead stimulation; format: cell-based, mouse; settings: for Protein phosphorylation induced by anti-CD3ε antibody coated beads: Mgat5+/+ T cells, disaccharide 1/3 serial dilution from 2.4 mM, 1 min stimulation
Galectins = settings: range; 8; read-out: Dissociation constant for galectin binding; cited from earlier work
[2] = tested on: TCR clustering in wild type (Mgat5+/+) T cells; experiment: TCR clustering at anti-CD3ε antibody-coated beads after disaccharide pre-incubation; format: cell-based, mouse; settings: for Enhanced TCR clustering observed (cells with clustering / cells examined): Mgat5+/+ T cells pre-incubated 20 min with 2 mM disaccharide, then anti-CD3ε antibody-coated beads 10 min, stained for TCR; for Effect on TCR clustering at the bead interface: wild type ex vivo T cells, 20 min disaccharide pre-incubation, 10 min anti-CD3ε bead stimulation
Procedure: TCR clustering: Six-micron polystyrene beads (Polysciences) in PBS were coated with hamster anti-mouse CD3ε antibody (Clone 2C11; Cederlane) at 2 μg/ml antibody followed by coating with 200 μg/ml bovine serum albumin (BSA). To measure TCR clustering, 5×10^4 T cells were incubated with 2.5×10^5 anti-CD3ε antibody-coated beads in 100 μl RPMI 1640+10% FCS at 37° C. for 10 minutes placed on poly-L-lysine coated cover slips. The cells were fixed with 10% formalin, stained with 2 μg/ml fluorescein isothiocyanate (FITC) labeled anti-TCRα/β antibody (Pharmigen), solubilized with 0.2% Triton X-100, labelled with rhodamine-phalloidin and Hoechst, and then visualized by deconvolution microscopy. […] To measure TCR internalization, purified splenic T cells stimulated with either 0.1 μg/ml^−1 anti-CD3 antibody or with 10 ng/ml PMA for varying lengths of time were harvested and stained with FITC-anti-TCRα/β. PMA concentrations were not limiting as 10, 50 and 100 ng/ml produced similar internalization and cell activation results. To measure actin reorganization, purified splenic T cells, stimulated with 0.1 μg/ml^−1 anti-CD3 for varying lengths of time, were fixed with 4% paraformaldehyde for 10 minutes, washed with PBS and stained with rhodamine-phalloidin and mean fluorescence intensity (MFI) was determined by FACS.

T cell proliferation = settings: depletion of Mgat5 modified glycans; cited from earlier work
EAE = settings: injected into mice; cited from earlier work

| Compound | Protein phosphorylation induced by anti-CD3ε antibody coated beads [1] | Kd (Galectins) [µM] | Enhanced TCR clustering observed (cells with clustering / cells examined) [2] | Effect on TCR clustering at the bead interface [2] | further results |
| --- | --- | --- | --- | --- | --- |
| N[C@H]1C(O)O[C@H](CO)[C@@H](O[C@@H]2O[C@H](CO)[C@H](O)[C@H](O)[C@H]2O)[C@@H]1O (stereo partly shown) [Lactosamine] | enhanced protein phosphorylation | ~100 | – | – | – |
| OC[C@H]1O[C@@H](O[C@H]2[C@H](O)[C@@H](O)C(O)O[C@@H]2CO)[C@H](O)[C@@H](O)[C@H]1O (stereo partly shown) [lactose] | enhanced protein phosphorylation | ~100 | 9/10 | increased TCR clustering at the bead interface; also recorded: produced a phenocopy of Mgat5^−/− TCR clustering | Signaling in Mgat5−/− T cells ([1]; Mgat5−/− T cells, data not shown): did not enhance signaling |
| OC[C@H]1O[C@H](O[C@H]2[C@H](O)[C@@H](O)[C@H](O)O[C@@H]2CO)[C@H](O)[C@@H](O)[C@@H]1O [maltose] | no effect | – | – | – | – |
| OC[C@H]1O[C@@](CO)(O[C@H]2O[C@H](CO)[C@@H](O)[C@H](O)[C@H]2O)[C@@H](O)[C@@H]1O [sucrose] | no effect | – | 1/10 | not altered | – |
| O[C@H]1[C@H]2[C@H](O)CCCN2C[C@H]1O [swainsonine] | – | – | – | – | Effect on antigen-dependent T cell proliferation (T cell proliferation): potentiates antigen-dependent T cell proliferation |
| galectin-1: exogenously added beta-galactoside-binding lectin | – | – | – | – | Effect on pathology of EAE (EAE): suppresses the pathology of EAE |
